The values that follow come from US20150018398A1, “METHODS OF USING ESTROGEN RECEPTOR-BETA LIGANDS AS RADIATION MITIGATORS” (The Regents of the University of California, priority 2013, published 2015).

Data set [1] concerns sublethally-irradiated mice. As to conditions: treatment 24 h before RT; cited from earlier work.
Data set [2] concerns ERβ-EGFR interaction in H23 lung tumor cells. The experiment in a line: ERβ-EGFR co-immunoprecipitation. Format: cell-based, human. The conditions noted are these: DPN treatment. On the procedure: EGF stimulates ERβ-EGFR interaction in epithelial cells. To assess the idea that ERβ interacts with EGFR to promote cross-talk in signaling, the association of these molecules in co-immunoprecipitation studies was tested in vitro (Márquez D C, Lee J, Lin T, Pietras R J. Endocrine. 2001 November; 16(2):73-81) (FIG. 4).

Data set [3] concerns VEGF secretion by H23 lung epithelial cells. The experiment in a line: VEGF secretion by ELISA after irradiation. The conditions noted are these: for VEGF secretion after irradiation: H23, treated 2 hrs before irradiation (10 Gy), ELISA after 24 hrs; for increase in vascular endothelial growth factor (VEGF) secretion: lung epithelial cells pre-treated (E2 2 nM, DPN 5 nM, 2 hrs) before irradiation (10 Gy), P<0.001. The data set is classed as cell-based, human.

The subject of the next data set is lung cells. The experiment in a line: TUNEL assay of apoptosis after RT. Format: cell-based. The conditions noted are these: E2 10 nM, DPN 1 μM, PPT 1 μM for 2 h, then 15 Gy, TUNEL after 48 h. The source says: Cell death is a measurable outcome due to significant radiation injury.
Data set [4] has as its system normal human bronchial epithelial (NHBE) cells. The experiment in a line: Cell viability after irradiation (NHBE cells). The data set is classed as cell-based. The conditions noted are these: 5 nM for 2 h before irradiation (2 Gy), up to 48 h. The text has this:
An additional experiment was done using normal human bronchial epithelial (NHBE) cells (see FIG. 7). […] These collective findings support the underlying hypothesis on the role of ERβ signaling in modulating radiation sensitivity.

For data set [5], the system named is human vascular endothelial cells (HUVEC). The experiment in a line: Cell survival after irradiation, drug given 24 h after RT (HUVEC). The data set is classed as cell-based. The conditions noted are these: for cell survival post-radiation (radiation mitigation): HUVEC, treatment at 24 hours after irradiation, P<0.001. The text has this:
(§1) FIGS. 6A-6B. […] 15; 59(6):1347-55).
(§2) ER-selective ligands increase survival of epithelial and endothelial cells post-radiation.

For data set [6], the system named is radiation-damaged reporter DNA in H23 lung cells. The experiment in a line: Reporter DNA repair assay. Format: cell-based, human. As to conditions: 24 h after transfection, 2 nM E2, 0.5 nM DPN or ERB. The source says: FIG. 9. […] 15; 59(6):1347-55); data are from 3 experiments (mean±SEM).
In a further data set the test system is C57/BL6 mice. The experiment in a line: Survival after lethal TBI, C57/BL6 mice. As to conditions: male C57/BL6 mice; 8.5 Gy TBI; DPN 10 mg/kg SC or ERB-041 50 mg/kg oral gavage daily for 5 days starting 24 hours after TBI; 30 days. Format: in vivo. The text has this: FIG. 15. […] Mice (n=8/group) received 8.5 Gy TBI. […] Controls received appropriate vehicle treatment (e.g. SC [CON SC] or OG [CON OG].
To validate our results above using a different animal model, we used C57/BL6 mice that were also bred and maintained in our AALAC-accredited animal facilities. As above, the UCLA ARC approved all studies. Male mice, 9 weeks-old, in a well-ventilated Lucite chamber without anesthesia received 8.5 Gy TBI from a Gamma Cell 40 irradiator (^137Cs source; Atomic Energy of Canada) at a dose rate of 67 cGy/min. […] Mice were monitored for 30 days using standard criteria for humane euthanasia as an endpoint and weights were recorded twice/week. […] These preliminary findings (FIGS. 14 & 15) provide good evidence to pursue further investigation of ERβ ligands as radiation mitigators.

The subject of data set [7] is H23 lung epithelial cells. The data set is described as follows: Cell survival after irradiation (H23 lung epithelial cells). Format: cell-based, human. The conditions noted are these: P<0.001; for lung cell survival post-radiation: H23, pre-treatment before irradiation.
Source text: as §1, §2

A further data set deals with C3H mice. The experiment in a line: Survival after lethal TBI, C3H mice. The data set is classed as in vivo. As to conditions: for lethality and survival after TBI: male C3H mice, 7.725 Gy TBI, DPN 10 mg/kg SC or ERB-041 50 mg/kg oral gavage daily for 5 days starting 24 h after TBI. The source says: C3H mice were bred and maintained in a strict defined-flora, pathogen-free environment in the AALAC-accredited animal facilities. The UCLA ARC approved all experiments which were done in accord with all local and national guidelines for care and use of animals. Male mice, 9-10 wks old, received 7.725 Gy TBI from a Gamma Cell 40 irradiator (^137Cs source; Atomic Energy of Canada) at a dose rate of 67 cGy/min. […] Mice were monitored for up to 60 days using standard criteria for humane euthanasia as an endpoint and weights were recorded twice/week.

The subject of data set [8] is H23 lung epithelial cells with ERβ silencing (ERbKD). The data set is described as follows: Cell survival after irradiation with ERβ siRNA knockdown. The data set is classed as cell-based, human. The conditions noted are these: lung epithelial cells treated with siRNA to suppress ERβ expression. On the procedure:
FIG. 8. H23 lung epithelial cells were transfected with control non-specific siRNAs (CON) or smart-pool ESR2 [ERβ] siRNA for ERβ silencing (ERbKD) as before (31,32); control cells were then treated with or without estradiol (E2) and compared with ERbKD cells treated with estradiol for 2 hrs before irradiation at 0-15 Gy as indicated in the figure (n=3 experiments); surviving cell fractions (%) are plotted on a log scale at increasing radiation doses.
To further assess the role of ERβ as a radioprotector and potential radiation mitigator, lung epithelial cells were treated with small inhibitory RNAs (siRNA) to suppress ERβ expression using established methods (Márquez-Garbán D C, Chen H W, Fishbein M C, Goodglick L, Pietras R J. Steroids. 2007 February; 72(2):135-43. Epub 2007 Feb. 5; Márquez D C, Chen H W, Curran E M, Welshons W V, Pietras R J. Mol Cell Endocrinol. 2006 Feb. 26; 246(1-2):91-100. Epub 2006 Jan. 4). […] Thus, ERβ appears to play a critical role in mediating effects of estrogen post-irradiation.

Data set [9] deals with phospho-serine-1981-ATM (PS-ATM) in A549 cells. The experiment in a line: RT-induced ATM activation (PS-ATM staining). The data set is classed as cell-based, human. As to conditions: treated 2 h, 5 Gy, stained 2 h after radiation, E2 10 nM, DPN/PPT 1 μM. On the procedure:
Phosphoryaltion of ATM is a critical first step in cell responses to RT (FIG. 3). Lung cells treated with control or estrogen for 2 hr were then irradiated and examined after 2 h for ATM activation (FIG. 10).

Data set [10] has as its system MDM2 in A549 lung epithelial cells. The data set is described as follows: MDM2 expression by Western blot. As to conditions: E2 10 nM, DPN or PPT 1 μM for 24 h. The data set is classed as cell-based, human. The text has this: Estrogens modulate MDM2 expression in lung cells. MDM2 is well known to bind and inhibit p53 FIG. 3). ERα binds and regulates the MDM2 promoter to stimulate MDM2 expression (see FIG. 12). Indeed, MDM2 SNP309 is reported to occur in an ER binding region of the MDM2 promoter, and affected individuals with SNP309 have increased MDM2 levels mediated by estrogen signaling (33,34).

For data set [11] the following is noted: in vivo; cited from earlier work.
In another data set the target is T1, ERα (Homo sapiens, UniProt P03372).
T1 sequence (P03372 1-595): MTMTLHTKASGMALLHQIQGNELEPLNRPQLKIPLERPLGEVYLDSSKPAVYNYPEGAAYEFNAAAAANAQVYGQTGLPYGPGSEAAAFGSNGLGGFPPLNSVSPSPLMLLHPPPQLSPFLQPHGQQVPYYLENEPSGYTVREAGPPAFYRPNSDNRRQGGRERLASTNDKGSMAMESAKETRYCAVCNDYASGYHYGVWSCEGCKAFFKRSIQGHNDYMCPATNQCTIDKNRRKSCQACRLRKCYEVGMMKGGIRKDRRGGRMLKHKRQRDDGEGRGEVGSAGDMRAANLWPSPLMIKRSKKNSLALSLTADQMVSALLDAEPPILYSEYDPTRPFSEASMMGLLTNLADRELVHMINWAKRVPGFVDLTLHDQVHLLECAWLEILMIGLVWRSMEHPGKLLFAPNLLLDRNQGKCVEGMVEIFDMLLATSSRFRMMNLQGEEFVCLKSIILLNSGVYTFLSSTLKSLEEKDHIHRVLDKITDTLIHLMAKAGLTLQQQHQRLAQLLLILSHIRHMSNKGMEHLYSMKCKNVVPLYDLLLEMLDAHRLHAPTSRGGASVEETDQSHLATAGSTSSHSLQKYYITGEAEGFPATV
The conditions noted are these: Harrington et al. 2003; cited from earlier work.

“Also recorded” adds a separate entry of the source.

Take `O=c1c(-c2ccc(O)cc2)coc2cc(O)cc(O)c12` [Genistein]: in [1], the “survival of irradiated mice” value is given as “increased survival without other significant toxicity”.
Take `N#CC(Cc1ccc(O)cc1)c1ccc(O)cc1` (stereo not shown) [DPN, 2,3-bis[4-hydroxyphenyl]-propionitrile]: in [2], the “interaction of ER-beta with EGFR” value is “promotes interaction of ERβ with EGFR; also recorded: promotes interaction of ER-beta with EGFR”. In data set [3], the “VEGF secretion after irradiation” value is reported as “stimulate high levels of VEGF secretion” and the “increase in vascular endothelial growth factor (VEGF) secretion” value was 2 fold. In data set [3] (treatment at 24 hours after irradiation (10 Gy), vs controls P<0.001), the “VEGF secretion, treatment after irradiation” value was “comparable increase in VEGF secretion; also recorded: significant increase in VEGF secretion”. The radiation-induced apoptosis entry with lung cells was “showed efficacy in suppressing radiation-induced apoptosis; also recorded: reduce radiation-induced apoptosis”. In addition, in data set [4] (P<0.001), the “cell viability / protection from radiation injury” value was “protect normal epithelial cells from radiation injury; also recorded: significantly different from control”. For the same compound, in data set [5], the “cell survival post-radiation (radiation mitigation)” value is reported as “mitigates these effects in HUVEC cells”. Besides, the Cell survival entry in [5] (normal human lung epithelial and vascular endothelial cells in vitro, treatment at 24-hr after irradiation, vs controls P<0.001) is given as “significantly improved in a dose-dependent fashion”. For the same compound, the “repair of radiation-damaged reporter DNA” value in data set [6] is “stimulation of enhanced DNA repair after irradiation; also recorded: stimulates repair of radiation-damaged reporter DNA”. Besides, the “lethality and survival after TBI” value with C57/BL6 mice is “protects mice from lethality and improves survival”. In data set [7], the “lung cell survival post-radiation” value was “dose-dependent increase in lung cell survival post-radiation”. Besides, the “effect as a radiation mitigator” value in [7] (H23 cells, treatment at 24 hrs after irradiation, two experiments) is “comparable effect as a radiation mitigator”. Also, the “lethality and survival after TBI” value with C3H mice was “protected mice from lethality and improved survival”. In the data set on C3H mice (mouse models in vivo, subcutaneous, treatment started 24 hours after TBI), this compound had a post-irradiation survival of 100%. Besides, the post-irradiation time window in the data set with C3H mice (radiation mitigator) is > 24 h. Besides, in data set [8], the “radioprotective / radiation mitigator effect in cells with ERβ knockdown” value is reported as “abolished”.
As to `C[C@]12CC[C@@H]3c4ccc(O)cc4CC[C@H]3[C@@H]1CC[C@@H]2O` [E2, estradiol-17β], the “VEGF secretion after irradiation” value in data set [3] is listed as “stimulate high levels of VEGF secretion”. Also, the “increase in vascular endothelial growth factor (VEGF) secretion” value in data set [3] is 2 fold. In addition, in the data set with lung cells, the radiation-induced apoptosis entry is given as “showed efficacy in suppressing radiation-induced apoptosis”. Further, in data set [9], the “ATM phosphorylation at serine 1981 (nuclear clustering of PS-ATM) after irradiation” value was “increased”. Moreover, the “repair of radiation-damaged reporter DNA” value in data set [6] was “stimulation of enhanced DNA repair after irradiation”; in data set [6] (listed as Estrogen) it was “stimulate repair of radiation-damaged reporter DNA”. The MDM2 levels entry in [10] is recorded as “stimulate MDM2 levels”. Besides, in data set [8], the “radioprotective / radiation mitigator effect in cells with ERβ knockdown” value is “failed to show a radioprotective effect”.
On to `C=Cc1cc(O)cc2nc(-c3ccc(O)c(F)c3)oc12` [ERB-041, (4Z)-4-(7-ethenyl-5-hydroxy-3H-1,3-benzoxazol-2-ylidene)-2-fluorocyclohexa-2,5-dien-1-one], for which the “cell viability / protection from radiation injury” value in [4] (P<0.001) is given as “protect normal epithelial cells from radiation injury”; in [4] (P<0.001, listed as ERB), “significantly different from control”. In [5], the “cell survival post-radiation (radiation mitigation)” value is given as “mitigates these effects in HUVEC cells”. Besides, the “repair of radiation-damaged reporter DNA” value in data set [6] is “stimulation of enhanced DNA repair after irradiation”. In addition, the “lethality and survival after TBI” value in the data set with C57/BL6 mice and in the data set with C3H mice was “somewhat less efficacious as a radiation mitigator” each time. Further, the “lung cell survival post-radiation” value in data set [7] was “dose-dependent increase in lung cell survival post-radiation”. The oral bioavailability entry in data set [11] is reported as “notable oral bioavailability”.
As to `CCCc1c(-c2ccc(O)cc2)nn(-c2ccc(O)cc2)c1-c1ccc(O)cc1` [PPT, Propylpryazoletriol], the radiation-induced apoptosis entry in the data set on lung cells is “showed efficacy in suppressing radiation-induced apoptosis”. In [9], the “ATM phosphorylation at serine 1981 (nuclear clustering of PS-ATM) after irradiation” value is given as “not”. For the same compound, at ERα, the ERα agonism result was “potent ERα agonist”. Besides, the MDM2 levels result in data set [10] was “stimulate MDM2 levels”.
